Experimental findings from PMC5218480 (PLoS ONE, 2017) are described below.

The subject of the assay is MV-4-11 cells. Kind of assay: Gene expression microarray analysis (Affymetrix PrimeView) and GSEA. The following applies: ProbeSet 11724526_at; LIST B. Type of assay: cell-based, human. The arrangement: RFU PODN (11730768_x_at) / Fold change /veh PODN (11730768_x_at) / RFU LINC00158 (11744669_a_at) / Fold change /veh LINC00158 (11744669_a_at) / RFU DUSP10 (11751237_a_at) / Fold change /veh DUSP10 (11751237_a_at) / RFU ID3 (11757404_x_at) / Fold change /veh ID3 (11757404_x_at) / RFU PLEKHG5 (11737974_s_at) / Fold change /veh PLEKHG5 (11737974_s_at) / RFU LRRC4B (11730491_at) / Fold change /veh LRRC4B (11730491_at) / RFU GIMAP4 (11747438_a_at) / Fold change /veh GIMAP4 (11747438_a_at) / RFU KRT8 (11758183_x_at) / Fold change /veh KRT8 (11758183_x_at) / RFU CNN1 (11734310_a_at) / Fold change /veh CNN1 (11734310_a_at) / RFU VPS37D (11726825_at) / Fold change /veh VPS37D (11726825_at) / RFU C10orf10 (11716522_x_at) / Fold change /veh C10orf10 (11716522_x_at) / RFU KIR2DL2 /// KIR2DL4 /// KIR2DL5A /// KIR2DL5B /// KIR2DS1 /// KIR2DS2 /// KIR2DS3 /// KIR2DS4 /// KIR3DL3 /// KIR3DL3 /// KIR3DS1 (11738374_at) / Fold change /veh KIR2DL2 /// KIR2DL4 /// KIR2DL5A /// KIR2DL5B /// KIR2DS1 /// KIR2DS2 /// KIR2DS3 /// KIR2DS4 /// KIR3DL3 /// KIR3DL3 /// KIR3DS1 (11738374_at) / RFU C1QL1 (11718748_at) / Fold change /veh C1QL1 (11718748_at) / RFU TMPRSS4 (11747572_a_at) / Fold change /veh TMPRSS4 (11747572_a_at) / RFU HAMP (11756126_x_at) / Fold change /veh HAMP (11756126_x_at) / RFU RNFT2 (11725882_a_at) / Fold change /veh RNFT2 (11725882_a_at) / RFU NR4A2 (11747474_a_at) / Fold change /veh NR4A2 (11747474_a_at) / RFU ABCC12 (11746883_a_at) / Fold change /veh ABCC12 (11746883_a_at) / RFU TMEM136 (11760407_x_at) / Fold change /veh TMEM136 (11760407_x_at) / RFU CLDN22 /// WWC2 (11732394_at) / Fold change /veh CLDN22 /// WWC2 (11732394_at) / RFU HLA-DPB1 (11760878_x_at) / Fold change /veh HLA-DPB1 (11760878_x_at) / RFU SPINT1 (11716480_a_at) / Fold change /veh SPINT1 (11716480_a_at) / RFU GAP43 (11754022_s_at) / Fold change /veh GAP43 (11754022_s_at) / RFU A4GNT (11735810_at) / Fold change /veh A4GNT (11735810_at) / RFU PRB3 (11715151_x_at) / Fold change /veh PRB3 (11715151_x_at) / RFU TUBB4B (11761932_at) / Fold change /veh TUBB4B (11761932_at) / RFU CAPN14 (11732068_a_at) / Fold change /veh CAPN14 (11732068_a_at) / RFU TMCC2 (11721928_a_at) / Fold change /veh TMCC2 (11721928_a_at) / RFU IRGQ (11745062_a_at) / Fold change /veh IRGQ (11745062_a_at) / RFU FAM174B (11720279_a_at) / Fold change /veh FAM174B (11720279_a_at) / RFU TMPRSS4 (11748680_a_at) / Fold change /veh TMPRSS4 (11748680_a_at) / RFU FAM212B (11763350_a_at) / Fold change /veh FAM212B (11763350_a_at) / RFU PLEKHG5 (11743358_a_at) / Fold change /veh PLEKHG5 (11743358_a_at) / RFU ZSCAN30 (11745921_a_at) / Fold change /veh ZSCAN30 (11745921_a_at) / RFU CMKLR1 (11741424_a_at) / Fold change /veh CMKLR1 (11741424_a_at) / RFU LOC101060620 /// MAPK8IP1 (11723275_at) / Fold change /veh LOC101060620 /// MAPK8IP1 (11723275_at) / RFU SPTSSB (11747773_x_at) / Fold change /veh SPTSSB (11747773_x_at) / RFU PRSS12 (11739890_at) / Fold change /veh PRSS12 (11739890_at) / RFU BIN1 (11741810_x_at) / Fold change /veh BIN1 (11741810_x_at) / RFU WNT11 (11732464_a_at) / Fold change /veh WNT11 (11732464_a_at) / RFU C10orf10 (11716521_a_at) / Fold change /veh C10orf10 (11716521_a_at) / RFU C5orf56 (11738089_at) / Fold change /veh C5orf56 (11738089_at) / RFU CYB561 (11721691_x_at) / Fold change /veh CYB561 (11721691_x_at) / RFU ANKRD19P (11752326_a_at) / Fold change /veh ANKRD19P (11752326_a_at) / RFU OR2T12 /// OR2T33 /// OR2T8 (11738714_s_at) / Fold change /veh OR2T12 /// OR2T33 /// OR2T8 (11738714_s_at) / RFU VCAN (11748164_a_at) / Fold change /veh VCAN (11748164_a_at) / RFU JSRP1 (11732532_at) / Fold change /veh JSRP1 (11732532_at) / RFU KRTAP10-11 (11738290_x_at) / Fold change /veh KRTAP10-11 (11738290_x_at) / RFU MYO3A (11730013_a_at) / Fold change /veh MYO3A (11730013_a_at) / RFU EBF3 (11725865_a_at) / Fold change /veh EBF3 (11725865_a_at) / RFU CAMK2N1 (11719241_x_at) / Fold change /veh CAMK2N1 (11719241_x_at) / RFU C5orf56 (11738088_a_at) / Fold change /veh C5orf56 (11738088_a_at) / RFU OLFML3 (11715873_a_at) / Fold change /veh OLFML3 (11715873_a_at) / RFU LOC100653217 /// NTM (11731650_a_at) / Fold change /veh LOC100653217 /// NTM (11731650_a_at) / RFU MAPK11 (11762145_a_at) / Fold change /veh MAPK11 (11762145_a_at) / RFU FIZ1 (11724087_x_at) / Fold change /veh FIZ1 (11724087_x_at) / RFU OASL (11726364_x_at) / Fold change /veh OASL (11726364_x_at) / RFU SOX15 (11748057_x_at) / Fold change /veh SOX15 (11748057_x_at) / RFU CD79A (11719716_a_at) / Fold change /veh CD79A (11719716_a_at) / RFU HIST1H1D (11736915_at) / Fold change /veh HIST1H1D (11736915_at) / RFU CASKIN2 (11723855_a_at) / Fold change /veh CASKIN2 (11723855_a_at) / RFU LOC730098 (11760151_x_at) / Fold change /veh LOC730098 (11760151_x_at) / RFU OR4N2 (11742367_at) / Fold change /veh OR4N2 (11742367_at) / RFU PRRT2 (11749266_a_at) / Fold change /veh PRRT2 (11749266_a_at) / RFU SNX32 (11753110_a_at) / Fold change /veh SNX32 (11753110_a_at) / RFU CDHR5 (11726645_a_at) / Fold change /veh CDHR5 (11726645_a_at) / RFU RCAN1 (11760418_a_at) / Fold change /veh RCAN1 (11760418_a_at) / RFU FAM167A (11723789_a_at) / Fold change /veh FAM167A (11723789_a_at) / RFU FAM26E (11764081_at) / Fold change /veh FAM26E (11764081_at) / RFU ISYNA1 (11749810_s_at) / Fold change /veh ISYNA1 (11749810_s_at) / RFU ACY1 (11761880_at) / Fold change /veh ACY1 (11761880_at) / RFU 11764098_at / Fold change /veh 11764098_at / RFU SAMD14 (11745864_x_at) / Fold change /veh SAMD14 (11745864_x_at) / RFU NPB (11741838_a_at) / Fold change /veh NPB (11741838_a_at) / RFU TMPRSS6 (11731388_a_at) / Fold change /veh TMPRSS6 (11731388_a_at) / RFU KRTAP10-2 (11738614_at) / Fold change /veh KRTAP10-2 (11738614_at) / RFU ARHGAP8 /// PRR5-ARHGAP8 (11727945_x_at) / Fold change /veh ARHGAP8 /// PRR5-ARHGAP8 (11727945_x_at) / RFU KRTAP5-7 /// NADSYN1 (11734609_at) / Fold change /veh KRTAP5-7 /// NADSYN1 (11734609_at) / RFU RASL12 (11751679_a_at) / Fold change /veh RASL12 (11751679_a_at) / RFU CDKN2B (11736163_a_at) / Fold change /veh CDKN2B (11736163_a_at) / RFU PRF1 (11729649_at) / Fold change /veh PRF1 (11729649_at) / RFU, ZNF638 /// ZNF638-IT1 / Fold change vs veh, ZNF638 /// ZNF638-IT1 / RFU, PANK3 / Fold change vs veh, PANK3 / RFU, SH3YL1 / Fold change vs veh, SH3YL1 / RFU, ZEB2 / Fold change vs veh, ZEB2 / RFU, NRIP1 / Fold change vs veh, NRIP1 / RFU, PTTG1IP / Fold change vs veh, PTTG1IP / RFU, CAPN2 / Fold change vs veh, CAPN2 / RFU, MED14 / Fold change vs veh, MED14 / RFU, SNORA58 / Fold change vs veh, SNORA58 / RFU, C1orf63 / Fold change vs veh, C1orf63 / RFU, LRRFIP1 / Fold change vs veh, LRRFIP1 / RFU, NDUFAF7 / Fold change vs veh, NDUFAF7 / RFU, SLC12A2 / Fold change vs veh, SLC12A2 / RFU, IBTK / Fold change vs veh, IBTK / RFU, ESF1 / Fold change vs veh, ESF1 / Fold change vs veh, TMEM50B / RFU, TAOK1 / Fold change vs veh, TAOK1 / RFU, ACBD3 / Fold change vs veh, ACBD3 / RFU, TMA16 / Fold change vs veh, TMA16 / RFU, RWDD3 / Fold change vs veh, RWDD3 / RFU, BCAT1 / Fold change vs veh, BCAT1 / RFU, EDEM3 / Fold change vs veh, EDEM3 / RFU, TMEM33 / Fold change vs veh, TMEM33 / RFU, WDR75 / Fold change vs veh, WDR75 / RFU, AHCTF1 / Fold change vs veh, AHCTF1 / RFU, TFRC / Fold change vs veh, TFRC / RFU, ZDHHC17 / Fold change vs veh, ZDHHC17 / RFU, NOM1 / Fold change vs veh, NOM1 / RFU, ARL8B / Fold change vs veh, ARL8B / RFU, ZBTB11 / Fold change vs veh, ZBTB11 / RFU, TAMM41 / Fold change vs veh, TAMM41 / RFU, KIAA1704 /// LOC100996395 / Fold change vs veh, KIAA1704 /// LOC100996395 / RFU, ING1 / Fold change vs veh, ING1 / RFU, TRMT61B / Fold change vs veh, TRMT61B / RFU, FUBP3 / Fold change vs veh, FUBP3 / RFU, TP53 / Fold change vs veh, TP53 / RFU, TNKS2 / Fold change vs veh, TNKS2 / RFU, ZFP14 / Fold change vs veh, ZFP14 / RFU, ACTR2 / Fold change vs veh, ACTR2 / RFU, PPP3R1 / Fold change vs veh, PPP3R1 / RFU, PIK3R1 / Fold change vs veh, PIK3R1 / RFU, HNRNPA1 / Fold change vs veh, HNRNPA1 / RFU, RNF170 / Fold change vs veh, RNF170 / RFU, ZNF28 / Fold change vs veh, ZNF28 / RFU, RNGTT / Fold change vs veh, RNGTT / RFU, OGT / Fold change vs veh, OGT / RFU, BRD1 / Fold change vs veh, BRD1 / RFU, MARS / Fold change vs veh, MARS / RFU, ZNF655 / Fold change vs veh, ZNF655 / RFU, FAHD1 / Fold change vs veh, FAHD1 / RFU, BDP1 / Fold change vs veh, BDP1 / RFU, LRRCC1 / Fold change vs veh, LRRCC1 / RFU, ARID1A / Fold change vs veh, ARID1A / RFU, ZNF146 / Fold change vs veh, ZNF146 / RFU, ZNF330 / Fold change vs veh, ZNF330 / RFU, GPN3 / Fold change vs veh, GPN3 / RFU, C9orf123 / Fold change vs veh, C9orf123 / RFU, N4BP2L2 / Fold change vs veh, N4BP2L2 / RFU, ARFIP1 / Fold change vs veh, ARFIP1 / RFU, FAM179B / Fold change vs veh, FAM179B / RFU, BCL10 / Fold change vs veh, BCL10 / RFU, UHRF1BP1L / Fold change vs veh, UHRF1BP1L / RFU, BET1 / Fold change vs veh, BET1 / RFU, CNOT2 / Fold change vs veh, CNOT2 / RFU, ZNF268 / Fold change vs veh, ZNF268 / Fold change vs veh, ZNF507 / RFU, DGCR2 / Fold change vs veh, DGCR2 / RFU, WDSUB1 / Fold change vs veh, WDSUB1 / Fold change vs veh, HSP90B1 /// MIR3652 / RFU, ADSS / Fold change vs veh, ADSS / RFU, GK / Fold change vs veh, GK / RFU, ZNF148 / Fold change vs veh, ZNF148 / RFU, TAF9 / Fold change vs veh, TAF9 / RFU, SLC1A5 / Fold change vs veh, SLC1A5 / RFU, SLMO2 / Fold change vs veh, SLMO2 / RFU, ABCC4 / Fold change vs veh, ABCC4 / RFU, LOC101060439 /// RAP1B / Fold change vs veh, LOC101060439 /// RAP1B / RFU, RFX7 / Fold change vs veh, RFX7 / RFU, GTPBP10 / Fold change vs veh, GTPBP10 / RFU, CNEP1R1 / Fold change vs veh, CNEP1R1 / RFU, BIVM-ERCC5 /// ERCC5 / Fold change vs veh, BIVM-ERCC5 /// ERCC5 / RFU, ILF3 / Fold change vs veh, ILF3 / RFU 11762660_at / Fold change /veh 11762660_at / RFU VCAN (11757783_s_at) / Fold change /veh VCAN (11757783_s_at) / RFU DDX43 (11728927_at) / Fold change /veh DDX43 (11728927_at) / RFU KRT8 (11758188_x_at) / Fold change /veh KRT8 (11758188_x_at) / RFU NKD1 (11759106_at) / Fold change /veh NKD1 (11759106_at) / RFU SRD5A1 (11742802_a_at) / Fold change /veh SRD5A1 (11742802_a_at) / RFU TPSAB1 /// TPSB2 (11721975_s_at) / Fold change /veh TPSAB1 /// TPSB2 (11721975_s_at) / RFU GSTM3 (11746129_a_at) / Fold change /veh GSTM3 (11746129_a_at) / RFU IL23R (11737362_x_at) / Fold change /veh IL23R (11737362_x_at) / RFU TMEM51 (11727254_a_at) / Fold change /veh TMEM51 (11727254_a_at) / RFU PIWIL2 (11732686_x_at) / Fold change /veh PIWIL2 (11732686_x_at) / RFU ORM1 (11744905_x_at) / Fold change /veh ORM1 (11744905_x_at) / RFU CCDC152 (11743942_at) / Fold change /veh CCDC152 (11743942_at) / RFU ECM1 (11717891_a_at) / Fold change /veh ECM1 (11717891_a_at) / RFU IL23R (11748794_a_at) / Fold change /veh IL23R (11748794_a_at) / RFU TNFAIP8L3 (11732012_x_at) / Fold change /veh TNFAIP8L3 (11732012_x_at) / RFU MBOAT4 (11741988_at) / Fold change /veh MBOAT4 (11741988_at) / RFU 11764193_at / Fold change /veh 11764193_at / RFU TMEM53 (11763286_at) / Fold change /veh TMEM53 (11763286_at) / RFU MAGEB2 (11727129_at) / Fold change /veh MAGEB2 (11727129_at) / RFU TMEM200A (11744735_a_at) / Fold change /veh TMEM200A (11744735_a_at) / RFU CCDC152 (11751479_a_at) / Fold change /veh CCDC152 (11751479_a_at) / RFU FAM211A (11726209_a_at) / Fold change /veh FAM211A (11726209_a_at) / RFU RGS16 (11746705_a_at) / Fold change /veh RGS16 (11746705_a_at) / RFU VCAN (11755009_s_at) / Fold change /veh VCAN (11755009_s_at) / RFU RHOB (11743442_s_at) / Fold change /veh RHOB (11743442_s_at) / RFU RGS16 (11720943_a_at) / Fold change /veh RGS16 (11720943_a_at) / RFU RGS16 (11720944_at) / Fold change /veh RGS16 (11720944_at) / RFU, VPS4B / Fold change vs veh, VPS4B / RFU, CREB1 / Fold change vs veh, CREB1 / RFU, DNAJC13 / Fold change vs veh, DNAJC13 / RFU, GNAQ / Fold change vs veh, GNAQ / RFU, CDK5R1 / Fold change vs veh, CDK5R1 / RFU, ZRANB3 / Fold change vs veh, ZRANB3 / RFU, CUL4A / Fold change vs veh, CUL4A / RFU, CCNY / Fold change vs veh, CCNY / RFU, UFL1 / Fold change vs veh, UFL1 / RFU, COG3 / Fold change vs veh, COG3 / RFU, DIAPH2 / Fold change vs veh, DIAPH2 / RFU, SKA2 / Fold change vs veh, SKA2 / RFU, AFF3 / Fold change vs veh, AFF3 / RFU, LMF1 / Fold change vs veh, LMF1 / RFU, IPO11 / Fold change vs veh, IPO11 / RFU, DFFB / Fold change vs veh, DFFB / RFU, FOXP1 / Fold change vs veh, FOXP1 / RFU, CARD8 / Fold change vs veh, CARD8 / RFU, STRN3 / Fold change vs veh, STRN3 / RFU, ADK / Fold change vs veh, ADK / RFU, RASSF2 / Fold change vs veh, RASSF2 / RFU, WIPF1 / Fold change vs veh, WIPF1 / RFU, LARP1B / Fold change vs veh, LARP1B / RFU, RASA1 / Fold change vs veh, RASA1 / RFU, RB1 / Fold change vs veh, RB1 / RFU, PPFIA1 / Fold change vs veh, PPFIA1 / RFU, MAT2A / Fold change vs veh, MAT2A / RFU, CCT5 / Fold change vs veh, CCT5 / RFU, WDR92 / Fold change vs veh, WDR92 / RFU, CUX1 / Fold change vs veh, CUX1 / RFU, TTC7A / Fold change vs veh, TTC7A / RFU, TMEM135 / Fold change vs veh, TMEM135 / RFU, DEPTOR / Fold change vs veh, DEPTOR / RFU, CPM / Fold change vs veh, CPM / RFU, DNAJB6 / Fold change vs veh, DNAJB6 / RFU, CACNA2D3 / Fold change vs veh, CACNA2D3 / RFU, DTX4 / Fold change vs veh, DTX4 / RFU, TFCP2 / Fold change vs veh, TFCP2 / RFU, GMCL1 /// GMCL1P1 / Fold change vs veh, GMCL1 /// GMCL1P1 / RFU, AEBP2 / Fold change vs veh, AEBP2 / RFU, SNHG1 /// SNORD22 /// SNORD25 /// SNORD26 /// SNORD27 /// SNORD28 /// SNORD29 /// SNORD31 / Fold change vs veh, SNHG1 /// SNORD22 /// SNORD25 /// SNORD26 /// SNORD27 /// SNORD28 /// SNORD29 /// SNORD31 / Fold change (Aza/veh), C12orf56 (ProbeSet 11735607_a_at) / Fold change (ACY-1035/veh), C12orf56 (ProbeSet 11735607_a_at) / Fold change (Aza/veh), FGFR1OP (ProbeSet 11751329_s_at) / Fold change (ACY-1035/veh), FGFR1OP (ProbeSet 11751329_s_at) / Fold change (Aza/veh), VPS36 (ProbeSet 11739960_a_at) / Fold change (ACY-1035/veh), VPS36 (ProbeSet 11739960_a_at) / RFU SYPL1 (11715823_x_at) / Fold change /veh SYPL1 (11715823_x_at) / RFU IGFBP7 (11715501_s_at) / Fold change /veh IGFBP7 (11715501_s_at) / RFU REEP3 (11722064_at) / Fold change /veh REEP3 (11722064_at) / RFU IGLL1 (11728026_x_at) / Fold change /veh IGLL1 (11728026_x_at): dose or concentration left out as unconfirmed.

For `Nc1ccc(-c2cccs2)cc1NC(=O)c1ccc2c(c1)cc(C1CC1)n2CCN1CCOCC1` [ACY-1035], the “RFU, FAHD1” value amounted to 149.86 RFU.
